Experiments:
OSGPR116 [1] = biological target: T1, OSGPR116 (Homo sapiens, UniProt Q8TDV5); experiment: Yeast cell-based Fus1p-LacZ reporter assay, human OSGPR116; design: expressed in transfected cells; host or cells: engineered yeast (GPA1 and Ste3 deleted, G-alpha chimera, Fus1p-LacZ reporters); conditions: human isoform, FIG. 9a; Galpha-q5 yeast, 4h incubation
T1 sequence (Q8TDV5 1-335): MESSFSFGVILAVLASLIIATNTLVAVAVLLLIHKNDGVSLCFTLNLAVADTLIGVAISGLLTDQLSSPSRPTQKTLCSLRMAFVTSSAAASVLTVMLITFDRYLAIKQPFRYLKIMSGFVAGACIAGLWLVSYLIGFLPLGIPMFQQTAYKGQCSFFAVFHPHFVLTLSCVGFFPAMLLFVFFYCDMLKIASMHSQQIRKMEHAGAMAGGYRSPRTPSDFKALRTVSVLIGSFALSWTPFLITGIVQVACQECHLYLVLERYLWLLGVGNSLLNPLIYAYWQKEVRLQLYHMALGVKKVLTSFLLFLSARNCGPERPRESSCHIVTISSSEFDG
Text: (§1) The yeast cell-based reporter assays have previously been described in the literature (e.g. see Miret J. J., et. al. (2002) J. Biol. Chem. 277:6881–6887; Campbell R. M., et. al. (1999) Bioorg Med. Chem. Lett. 9:2413–2418; King K., et. al. (1990) Science. 250:121–123); WO 99/14344; WO 00/12704; and U.S. Pat. No. 6,100,042). Briefly, yeast cells have been engineered such that the endogenous yeast G-alpha (GPA1) has been deleted and replaced with G-protein chimeras constructed using multiple techniques. Additionally the endogenous yeast alpha-cell GPCR, Ste3 has been deleted to allow for a […] expression of a mammalian GPCR of choice. In the yeast, elements of the pheromone signaling transduction pathway, which are conserved in eukaryotic cells (for example, the mitogen-activated protein kinase pathway), drive the expression of Fus1. By placing β-galactosidase (LacZ) under the control of the Fus1 promoter (Fus1p), a system has been developed whereby receptor activation leads to an enzymatic read-out. Different yeast strains (e.g. FIG. 10) denote the presence of different G-alpha chimeras (see “yeast reporter assays” in Results section below for definitions).
(§2) Yeast cells are transformed by an adaptation of the Lithium acetate method described by Agatep et.al. (Agatep, R., et. al. (1998) Transformation of Saccharomyces cerevisiae by the lithium acetate/single-stranded carrier DNA/polyethylene glycol (LiAc/ss-DNA/PEG) protocol. Technical Tips Online, Trends Journals, Elsevier). Briefly, yeast cells are grown overnight on yeast tryptone plates (YT). Carrier single-stranded DNA (10 μg), 2 μg of each of two Fus1p-LacZ reporter plasmids (one with URA selection marker and one with TRP), 2 μg of OSGPR116 in yeast expression vector (2μ origin of replication) and a lithium acetate/polyethylene glycol/TE buffer is pipetted into an Epindorf tube. The yeast expression plasmid containing the receptor/no receptor control has a LEU marker. Yeast cells are inoculated into this mixture and the reaction proceeds at 30° C. for 60 minutes. The yeast cells are then heat-shocked at 42° C. for 15 minutes. The cells are then washed and spread on selection plates. The selection plates are synthetic defined yeast media minus LEU, URA and TRP (SD-LUT). After incubating at 30° C. for 2–3 days, colonies that grow on the selection plates are then tested in the LacZ assay.
(§3) In order to perform fluorometric enzyme assays for β-galactosidase, yeast cells were grown overnight in liquid SD-LUT media to an unsaturated concentration (i.e. the cells are still dividing and have not yet reached stationary phase). They are diluted in fresh media to an optimal assay concentration and 90 μL of yeast cells were added to 96-well black polystyrene plates (Costar). Compounds, dissolved in ethanol and diluted in a 1% BSA solution to 10× concentration, were added to the plates and the yeast are placed at 30° C. for 4h. After 4h, the substrate for the β-galactosidase is added to each well. The substrate may yield a fluorescent or calorimetric read-out upon the activity of the β-galactosidase. In these experiments, Fluorescein di (β-D-galactopyranoside) was used (FDG), a substrate for the enzyme that releases fluorescein, allowing a fluorometric read-out. 20 μL of 500 uM FDG was used. After incubation of the cells with the substrate for 30–60 mins, 20 μL of 1M sodium carbonate is added to terminate the reaction and enhance the fluorescent signal. The plates were then read in a fluorometer at 485/535 nm. As an alternate read-out system, the yeast are also engineered with a Fus1p-HIS gene which means that activation of the receptor can also be measured through the growth of the yeast in a […] deficient media.

[2] = system: vector transformed yeast cells; experiment: Yeast reporter assay, vector transformed (no receptor) control yeast; type: cell-based; conditions: yeast without OSGPR116 expression, FIGS. 9a, 9b
Text: as §1, §2, §3

[3] = biological target: T2, mouse homolog of OSGPR116 (Mus musculus, UniProt Q7TQP3); experiment: Yeast cell-based Fus1p-LacZ reporter assay, mouse OSGPR116; conditions: mouse isoform, FIG. 9b; Galpha-q5 yeast, 4h incubation
T2 construct: expressed in transfected cells; host or cells: engineered yeast (GPA1 and Ste3 deleted, G-alpha chimera, Fus1p-LacZ reporters)
T2 sequence (Q7TQP3 1-335): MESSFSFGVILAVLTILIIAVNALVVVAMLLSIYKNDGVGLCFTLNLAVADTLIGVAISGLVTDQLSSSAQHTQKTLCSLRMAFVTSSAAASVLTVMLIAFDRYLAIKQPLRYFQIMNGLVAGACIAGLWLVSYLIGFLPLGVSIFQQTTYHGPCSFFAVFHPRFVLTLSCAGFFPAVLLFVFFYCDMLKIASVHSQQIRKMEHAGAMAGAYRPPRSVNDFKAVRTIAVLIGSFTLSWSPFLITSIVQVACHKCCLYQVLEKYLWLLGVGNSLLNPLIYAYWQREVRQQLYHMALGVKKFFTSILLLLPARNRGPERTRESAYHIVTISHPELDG
Text: as §1, §2, §3

OSGPR116 [4] = biological target: T1, OSGPR116; experiment: Cre-SEAP assay in HEK-293-Galpha16 cells transfected with OSGPR116 or empty vector; type: cell-based; design: expressed in transfected cells; host or cells: HEK-293-Galpha16 cells stably expressing cre-SEAP, transient transfection with lipofectamine; conditions: OSGPR116 and empty vector transfected cells, 7h, FIG. 12
Description: HEK-293—Galpha16 cells stably expressing the cre-SEAP (secreted alkaline phosphatase) reporter construct, and transiently transfected with either the OSGPR116 vector or empty vector control, were grown to between ˜0.5×10^6 and 1×10^7 cells/dish and seeded at 4×10^4 cells/well on poly-D-lysine coated clear-bottom 96-well tissue culture plates. The cells were left to adhere to the plates in media for 24h at 37° C. The media was aspirated and the cells arrested by serum starvation for a further 24h in 200 ul of colorless DMEM.
After serum arrest, the starvation media was aspirated and 90 ul fresh colorless DMEM containing 0.1% BSA was added. 10 ul of 10× compound (or DMSO/H20 control) was added and the plates incubated at 37° C. for 7h. Conditioned media (12.5 ul) was then transferred to a 96 well white flat-bottom plate. Next, 37.5 μl of 1× Tropix Dilution Buffer was added to the transferred culture media. 50 μl of Tropix Assay Buffer was also added. The plate was then incubated at room temperature for 5 minutes. Finally, 50 μl Tropix Reaction Buffer Diluent containing a 1:20 dilution of the CSPD Chemiluminescent Substrate was added. The plate was incubated at room temperature for 60 minutes and luminescence measured.

OSGPR116 [5] = biological target: T1, OSGPR116; design: expressed in transfected cells; host or cells: yeast strains 13397, 13393, 15070, 18043, 20202, 10151 with different G-alpha chimeras; conditions: as described in earlier U.S. patents; cited from earlier work

SMILES | effect on fluorescence (β-galactosidase activity) in yeast transformed with OSGPR116 receptor (OSGPR116 [1]) | increase in fluorescence in vector transformed cells [2] | effect on fluorescence (β-galactosidase activity) in yeast transformed with OSGPR116 receptor [3] | also measured
CCCCC/C=C\C/C=C\C/C=C\C/C=C\CCCC(=O)NCCO [anandamide] | increase in fluorescence | not | increase in fluorescence | 
Nc1ncnc2c1ncn2[C@@H]1O[C@H](COP(=O)(O)OP(=O)(O)OP(=O)(O)O)[C@@H](O)[C@H]1O [ATP] |  |  |  | luminescence (cre-SEAP, cAMP response element driven secreted alkaline phosphatase) (OSGPR116 [4]): no effect
Cc1c(C(=O)c2cccc3ccccc23)c2cccc3c2n1[C@H](CN1CCOCC1)CO3 [WIN55212-2] | no effect |  |  | 
CC/C=C\C/C=C\C/C=C\CCCCCCCC(=O)NCCO [linolenoyl ethanolamide] | increase in fluorescence | not | increase in fluorescence | 
CCCCCCCC/C=C\CCCCCCCC(N)=O [oleamide] | increase in fluorescence | not | increase in fluorescence | 
CCCCC/C=C\C/C=C\C/C=C\C/C=C\CCCC(=O)N[C@H](C)CO [methanandamide] | no effect |  |  | 
CCCCCCCCCCCCCCCC(=O)NCCO [palmitoyl ethanolamide] | increase in fluorescence | not | increase in fluorescence | 
CCCCCCC(C)(C)c1ccc([C@@H]2C[C@H](O)CC[C@H]2CCCO)c(O)c1 [CP55940] | no effect |  |  | 
CC1=C(/C=C/C(C)=C/C=C/C(C)=C/C(=O)O)C(C)(C)CCC1 [ATRA, all-trans-retinoic acid] | no effect |  |  | luminescence (cre-SEAP, cAMP response element driven secreted alkaline phosphatase) (OSGPR116 [4]): no effect; luminescence (cre-SEAP, cAMP response element driven secreted alkaline phosphatase) (OSGPR116 [4]; listed as all-trans retinoic acid (ATRA)): Lack of effect; production of cyclic AMP in host cells expressing recombinant receptor (OSGPR116 [5]): stimulate the production of cyclic AMP
CCNC(=O)[C@H]1O[C@@H](n2cnc3c(N)ncnc32)[C@H](O)[C@@H]1O [NECA] |  |  |  | luminescence (cre-SEAP, cAMP response element driven secreted alkaline phosphatase) (OSGPR116 [4]): clear increase
CCCC(C)(C)c1ccc2c(c1)OC(C)(C)[C@@H]1CC=C(C)C[C@@H]21 [JWH-133] | no effect |  |  | 
CC/C=C\C/C=C\C/C=C\C/C=C\C/C=C\C/C=C\CCC(=O)NCCO [docosahexaenoic acid ethanolamide] | no effect |  |  | 
CCCCCCCCCCCCCCCCCC(=O)NCCO [stearoyl ethanolamide] | increase in fluorescence | not | increase in fluorescence | 
